Key:
TrkA^WT kinase = TrkA^WT kinase (Homo sapiens (Human), UniProt P04629); experiment: Assay for inhibitory activity (IC50) against TrkA^WT (HTRF); format: biochemical; conditions: TrkA 1 nM, ATP 40 μM, TK peptide 1 μM, 60 min at 23° C.
[1] = biological target: TrkA^G595R (Kinase domain) kinase (Homo sapiens (Human), UniProt P04629, G595R); experiment: Assay for inhibitory activity (IC50) against TrkA^G595R kinase (HTRF); format: biochemical; conditions: kinase 0.2 nM, TK peptide 1 μM, 120 min at 23° C.
[2] = Pharmacokinetic assay in rats, oral; format: in vivo; conditions: rat, male SD rats, 5 mg/kg single intragastric administration, plasma
Protocol: Male SD rats were available from Beijing Vital River Laboratory Animal Technology Co., Ltd. The rats were allocated with three rats per group, and orally administered the suspension of a sample to be tested (5 mg/kg, the suspension is a mixed solution of 10% EtOH, 40% PEG 400 and 50% H2O) by single intragastric administration, respectively. Before the experiment, the animals were fasted overnight, and the fasting time was from 10 hrs before administration to 4 hrs after administration. After administration, a blood sample was taken at 0.25 hr, 0.5 hr, 1 hr, 2 hrs, 4 hrs, 6 hrs, 8 hrs and 24 hrs, respectively. After the animals were narcotized with isoflurane using an anaesthesia machine for small animals, 0.3 mL of whole blood was taken from fundus venous plexus, and placed in a heparin anticoagulant tube. At 4° C., the sample was centrifuged at 4000 rpm for 5 min, and plasma was transferred to a centrifuge tube and preserved at −80° C. until the analysis was started. The sample in plasma was extracted by the protein precipitation method, and the extracted liquid was analyzed by LC/MS/MS.

TrkA^G595R (Kinase domain) kinase, sequence (P04629 510-781 G595R): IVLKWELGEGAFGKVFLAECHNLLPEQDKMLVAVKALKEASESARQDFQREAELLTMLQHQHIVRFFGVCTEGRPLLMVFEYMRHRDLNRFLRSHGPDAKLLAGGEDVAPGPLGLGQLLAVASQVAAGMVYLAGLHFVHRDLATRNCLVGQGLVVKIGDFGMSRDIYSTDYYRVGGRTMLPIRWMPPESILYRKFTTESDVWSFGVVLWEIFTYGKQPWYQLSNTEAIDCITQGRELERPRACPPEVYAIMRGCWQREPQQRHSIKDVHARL
TrkA^WT kinase, sequence (P04629 33-796): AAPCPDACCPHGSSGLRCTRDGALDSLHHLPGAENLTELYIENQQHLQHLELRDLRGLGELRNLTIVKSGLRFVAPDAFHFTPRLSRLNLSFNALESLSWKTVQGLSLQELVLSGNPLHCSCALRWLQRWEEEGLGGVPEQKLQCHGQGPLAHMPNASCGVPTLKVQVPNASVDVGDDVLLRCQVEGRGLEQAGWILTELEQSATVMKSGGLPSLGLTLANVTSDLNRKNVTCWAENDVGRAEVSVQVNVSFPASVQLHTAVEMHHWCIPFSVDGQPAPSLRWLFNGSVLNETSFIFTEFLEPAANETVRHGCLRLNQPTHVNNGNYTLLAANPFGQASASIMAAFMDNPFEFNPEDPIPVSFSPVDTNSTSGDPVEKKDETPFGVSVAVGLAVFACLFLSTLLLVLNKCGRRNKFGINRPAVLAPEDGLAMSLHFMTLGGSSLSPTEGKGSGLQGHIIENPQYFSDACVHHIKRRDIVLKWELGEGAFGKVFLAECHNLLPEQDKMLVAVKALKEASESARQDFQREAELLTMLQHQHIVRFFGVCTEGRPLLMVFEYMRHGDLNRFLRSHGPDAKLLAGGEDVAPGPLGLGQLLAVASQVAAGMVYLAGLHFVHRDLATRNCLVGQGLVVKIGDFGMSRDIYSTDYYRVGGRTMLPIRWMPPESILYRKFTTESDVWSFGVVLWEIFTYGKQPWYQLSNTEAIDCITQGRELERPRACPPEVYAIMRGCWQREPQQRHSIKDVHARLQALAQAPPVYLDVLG

| Compound | IC50 (TrkA^WT kinase) [nM] | IC50 [1] [nM] | other results |
| --- | --- | --- | --- |
| Nc1nn2ccc3nc2c1C(=O)NCCCOc1ncc(F)cc1C1CCCN31 (centres unmarked) [Example 2] | 0.57 ± 0.1 | – | – |
| Nc1nn2ccc3nc2c1C(=O)NCCCCc1cccc(n1)C1CCCN31 (centres unmarked) [Example 3, (1^3E,1^4E)-1^2-amino-4-oxa-8-aza-1(5,3)-pyrazolo[1,5-a]pyrimidine-3(2,6)-pyridine-2 (1,2)-pyrrolidylcyclononanephane-9-one] | 0.84 ± 0.12 | – | – |
| Nc1nn2ccc3nc2c1C(=O)NCCOc1ncccc1[C@H]1CCCN31 [Example 5, (R,1^3E,1^4E)-1^2-amino-4-oxa-7-aza-1(5,3)-pyrazolo[1,5-a]pyrimidine-3(3,2)-pyridine-2 (1,2)-pyrrolidylcyclooctanephane-8-one] | 0.37 ± 0.04 | – | – |
| Nc1nn2ccc3nc2c1C(=O)NCCCOc1ncccc1[C@H]1CCCN31 [Example 6, (R,1^3E,1^4E)-1^2-amino-4-oxa-8-aza-1(5,3)-pyrazolo[1,5-a]pyrimidine-3(3,2)-pyridine-2 (1,2)-pyrrolidylcyclononanephane-9-one] | 0.47 ± 0.26 | – | – |
| Nc1nn2ccc3nc2c1C(=O)NCCOc1ccc(F)cc1[C@H]1CCCN31 [Example 8, (R,1^3E,1^4E)-1^2-amino-3^5-fluro-4-oxa-7-aza-1(5,3)-pyrazolo[1,5-a]pyrimidine-2(1,2)-pyrrolidine-3(1,2)-benzocyclooctanephane-8-one] | 0.41 ± 0.04 | 2.08 ± 0.45 | – |
| Nc1nn2ccc3nc2c1C(=O)NCCOc1ncc(F)cc1[C@H]1C[C@@H](O)CN31 [Example 9, (1^3E,1^4E,2^2R,2^4R)-1^2-amino-3^5fluoro-2^4-hydroxy-4-oxa-7-aza-1(5,3)-pyrazolo[1,5-a] pyrimidine-3(3,2)-pyridine-2(1,2)-pyrrolidylcyclooctanephane-8-one] | 0.44 ± 0.12 | 0.84 ± 0.14 | – |
| Nc1nn2ccc3nc2c1C(=O)NCCCOc1ccc(F)cc1[C@H]1CCCN31 [Example 10, (R,1^3E,1^4E)-1^2-amino-3^5-fluro-4-oxa-8-aza-1(5,3)-pyrazolo[1,5-a]pyrimidine-2(1,2)-pyrrolidine-3(1,2)-benzocyclononanephane-9-one] | 0.8 ± 0.21 | 1.92 ± 0.1 | – |
| Nc1nn2ccc3nc2c1C(=O)NCCOc1ncccc1C1CCCN31 (centres unmarked) [Example 11, (1^3E, 1^4E)-1^2-amino-4-oxa-7-aza-1(5,3)-pyrazolo[1,5-a]pyrimidine-3(3,2)-pyridine-2 (1,2)-pyrrolidylcyclooctanephane-8-one] | 1.04 ± 0.34 | – | – |
| Nc1nn2ccc3nc2c1C(=O)NCCCOc1ncc(F)cc1C1C[C@@H](F)CN31 (some centres unmarked) [Example 13, (1^3E,1^4E, 2^2R,2^4R)-1^2-amino-2^4,3^5-difluoro-4-oxa-8-aza-1(5,3)-pyrazolo[1,5-a]pyrimidine-3(3,2)-pyridine-2 (1,2)-pyrrolidylcyclononanephane-9-one] | 0.64 ± 0.02 | – | – |
| Nc1nn2ccc3nc2c1C(=O)NCCOc1ncc(F)cc1[C@H]1C[C@H](F)CN31 [Example 14, (1^3E,1^4E,2^2R,2^4S)-1^2-amino-2^4,3^5-difluoro-4-oxa-7-aza-1(5,3)-pyrazolo[1,5-a]pyrimidine-3(3,2)-pyridine-2 (1,2)-pyrrolidylcyclooctanephane-8-one] | 0.68 ± 0.03 | 0.4 ± 0.05 | AUC(0-inf) [2]: 504 ng·h/mL; Cmax [2]: 140 ng/mL; Tmax [2]: 60 min; half-life [2]: 109 min |
| Nc1nn2ccc3nc2c1C(=O)NCCCCOc1ncc(F)cc1[C@H]1C[C@H](F)CN31 [Example 16, (1^3E,1^4E,2^2R,2^4S)-1^2-amino-2^4,3^5-difluoro-4-oxa-9-aza-1(5,3)-pyrazolo[1,5-a] pyrimidine-3(3,2)-pyridine-2(1,2)-pyrrolidylcyclodecanephane-10-one] | 0.51 ± 0.05 | 0.76 ± 0.14 | – |
| CN1CCCOc2ncc(F)cc2[C@H]2C[C@H](F)CN2c2ccn3nc(N)c(c3n2)C1=O [Example 17, (1^3E,1^4E,2^2R,2^4S)-1^2-amino-2^4,3^5-difluoro-8-methyl-4-oxa-8-aza-1(5,3) -pyrazolo[1,5-a] pyrimidine-3(3,2)-pyridine-2(1,2)-pyrrolidylcyclononanephane-9-one] | 0.61 ± 0.06 | 1.05 ± 0.16 | – |
| CC1(C)CNC(=O)c2c(N)nn3ccc(nc23)N2C[C@@H](F)CC2c2cc(F)cnc2OC1 (some centres unmarked) [Example 18, (1^3E,1^4E,2^2R,2^4S)-1^2-amino-2^4,3^5-difluoro-6,6-dimethyl-4-oxa-8-aza-1(5,3)-pyrazolo [1,5-a]pyrimidine-3(3,2)-pyridine-2(1,2)-pyrrolidylcyclononanephane-9-one] | – | 1.24 ± 0.15 | – |
| C[C@@H]1COc2ncc(F)cc2[C@H]2C[C@H](F)CN2c2ccn3nc(N)c(c3n2)C(=O)N1 [Example 19, (1^3E,1^4E,2^2R,2^4S,6R)-1^2-amino-2^4, 3^5-difluoro-6-methyl-4-oxa-7-aza-1(5,3)-pyrazolo[1,5-a] pyrimidine-3(3,2)-pyridine-2(1,2)-pyrrolidylcyclooctanephane-8-one] | – | 0.73 ± 0.07 | – |
| Nc1nn2ccc3nc2c1C(=O)NCCOc1ccc(F)cc1[C@@H]1CCCN31 [Example 20, (S,1^3E,1^4E)-1^2-amino-3^5-fluoro-4-oxa-7-aza-1(5,3)-pyrazolo [1,5-a]pyrimidine-2(1,2)-pyrrolidine-3(1,2)-benzocyclooctanephane-8-one] | 3.8 ± 0.21 | – | – |
| Nc1nn2ccc3nc2c1C(=O)NCCCOc1ncc(F)cc1[C@H]1CCCN31 [Example 21, (R,1^3E,1^4E)-1^2-Amino-3^5-fluoro-4-oxa-8-aza-1(5,3)-pyrazol[1,5-a]pyrimidine-3(3,2)-pyridine-2(1,2)-pyrrolidylcyclononanephane-9-one] | 0.4 ± 0.04 | 0.85 ± 0.04 | – |
| Nc1nn2ccc3nc2c1C(=O)NCCCn1cc(F)cc(c1=O)[C@H]1CCCN31 [Example 22, (1^3E,1^4E,2^2R)-1^2-Amino-3^5-fluoro-3^1,3^2-dihydro-7-aza-1(5,3)-pyrazolo[1,5-a]pyrimidine-3(3,1)-pyridine-2(1,2)-pyrrolidylcyclooctanephane-3^2,8-dione] | 0.57 ± 0.03 | – | – |
| Nc1nn2ccc3nc2c1C(=O)NCCCn1cc(F)cc(c1=O)C1CCCN31 (centres unmarked) [Example 24, (1^3E,1^4E)-1^2-amino-3^5-fluoro-3^1,3^2-dihydro-7-aza-1(5,3)-pyrazolo[1,5-a]pyrimidine-3(3,1)-pyridine-2(1,2)-pyrrolidylcyclooctanephane-3^2,8-dione] | 0.85 ± 0.07 | – | – |
| Nc1nn2ccc3nc2c1C(=O)NCCCc1ncc(F)cc1[C@H]1C[C@H](F)CN31 [Example 27, (1^3E,1^4E,2^2R,2^4S)-1^2-amino-2^4,3^5-difluoro-7-aza-1(5,3)-pyrazolo[1,5-a]pyrimidine-3(3,2)-pyridine-2(1,2)-pyrrolidylcyclooctanephane-8-one] | 0.21 ± 0.03 | 0.68 ± 0.26 | – |
| C[C@@H]1CCc2ncc(F)cc2[C@H]2CCCN2c2ccn3nc(N)c(c3n2)C(=O)N1 [Example 28, (1^3E,1^4E,2^2R,6R)-1^2-amino-3^5-fluoro-6-methyl-7-aza-1(5,3)-pyrazolo[1,5-a]pyrimidine 3(3,2)-pyridine-2(1,2) pyrrolidylcyclooctanephane-8-one] | 0.31 ± 0.03 | 1.01 ± 0.36 | – |
| C[C@H]1CCc2ncc(F)cc2[C@H]2C[C@H](F)CN2c2ccn3nc(N)c(c3n2)C(=O)N1 [Example 29, (1^3E,1^4E,2^2R,24S,6S)-1^2-amino-2^4,3^5-difluoro-6-methyl-7-aza-1(5,3)-pyrazolo[1,5-a]pyrimidine-3(3,2)-pyridine-2(1,2) pyrrolidylcyclooctanephane-8-one] | 0.25 ± 0.02 | 1.08 ± 0.24 | – |
| Nc1nn2ccc3nc2c1C(=O)NCCCCc1ncc(F)cc1[C@H]1C[C@H](F)CN31 [Example 31, (1^3E,1^4E,2^2R,2^4S)-1^2-amino-2^4,3^5-difluoro-8-aza-1(5,3)-pyrazolo[1,5-a]pyrimidine-3(3,2)-pyridine-2(1,2)-pyrrolidylcyclononanephane-9-one] | – | 1.45 ± 0.11 | – |
| C[C@H]1CNC(=O)c2c(N)nn3ccc(nc23)N2CCC[C@@H]2c2cc(F)ccc2O1 [Example 32, (1^3E,1^4E,2^2R,5S)-1^2-amino-3^5-fluoro-5-methyl-4-oxa-7-aza-1(5,3)-pyrazolo[1,5-a]pyrimidine-(1,2)-pyrrolidine-3(1,2)-benzocyclooctanephane-8-one] | – | 1.28 ± 0.05 | – |
| Nc1nn2ccc3nc2c1C(=O)NCCOc1ncc(F)cc1[C@H]1CCCN31 [Example 33, (R,1^3E,1^4E)-1^2-amino-3^5-fluoro-4-oxa-7-aza-1(5,3)-pyrazo[1,5-a]pyrimidine-3(3,2)-pyridine-2(1,2)-pyrrolidylcyclooctanephane-8-one] | – | – | AUC(0-inf) [2]: 513 ng·h/mL; Cmax [2]: 142 ng/mL; Tmax [2]: 30 min; half-life [2]: 253 min |
| Nc1nn2ccc3nc2c1C(=O)NCC(F)(F)COc1ncc(F)cc1[C@H]1C[C@H](F)CN31 [Example 35, (1^3E,1^4E,2^2R,2^4S)-1^2-amino-2^4,3^5,6,6-tetrafluoro-4-oxa-8-aza-1(5,3)-pyrazol[1,5-a]pyrimidine-3(3,2)-pyridine-2(1,2)-pyrrolidylcyclononanephane-9-one] | – | 1.36 ± 0.02 | – |
| (1^3E,1^4E,2^2R,2^4S)-1^2-Amino-2^4,3^5-difluoro-4-oxa-8-aza-1(5,3)-pyrazolo[1,5-a]pyrimidin-3(3,2)-pyridine-2(1,2)-pyrrolidylcyclononanephane-9-one [Example 12] | 0.72 ± 0.04 | 0.34 ± 0.04 | – |
